Assay results from patent US10570179B2, “Substituted urea depsipeptide analogs as activators of the CLPP endopeptidase” (priority 2016, dated 2020).
Converted amounts (≈) assume the structure as drawn. Read-outs that look alike come from different tables or passages of the source. Numbered stars: 1 amine (or outer) side, 2 acyl side, 3 side chain; on linkers, the order of the positions; unused ones are H or OH. Bridge positions count the residues as written; N and C are the ends. Square brackets hold non-standard residues; d marks the D form. Peptide text beside a SMILES is read from it. * marks the point of attachment. ξ: configuration not given here. Phe(3,5-Me2) = Cc1cc(C)cc(C[C@H](N)C(=O)O)c1; Phe(3-Me) = Cc1cccc(C[C@H](N)C(=O)O)c1; NH(4-Cl-2-F-phenyl) = Fc1cc(Cl)ccc1N*; Pro(4R-Me) = C[C@H]1CN[C@H](C(=O)O)C1; NH(4-Me-phenyl) = Cc1ccc(N*)cc1; ξNMeThr = CNC(C(=O)O)[C@@H](C)O; aThr = C[C@H](O)[C@H](N)C(=O)O; Pip = O=C(O)[C@@H]1CCCCN1; CO = O=C([*:1])[*:2]

Tests used:
[1] = Microsomal metabolic stability; assay type: in vitro ADME, mouse
Procedure: Compounds were initially prepared by dissolving them into DMSO at a final concentration of 10 mM. NADPH regenerating solutions A and B and mouse liver microsomes (CD-1) were obtained from BD Gentest (Woburn, Mass.). Ninety-six well deep well plates were obtained from MidWest Scientific Inc (Valley Park, Mo.).
Sample preparation for microsomal stability was modified from methods of Di, L., et al., Int J Pharm. 2005 Jun. 13; 297(1-2):110-9. A set of incubation times of 0, 15, 30, 60, 120, and 240 minutes were used. Mouse liver microsomal solutions were prepared by adding 58 μL of concentrated human or mouse liver microsomes (20 mg/mL protein concentration) to 1.756 mL of 0.1 M potassium phosphate buffer (pH 7.4) and 5 μL of 0.5 M EDTA to make a 0.6381 mg/mL (protein) microsomal solution. NADPH regenerating agent contained 113 μL of NADPH A, 23 μL of NADPH B, and 315 μL of 0.1 M potassium phosphate buffer (pH 7.4). The diluted test compound solutions (2 μL) were each added directly to a 1.79 mL of liver microsomal solution. This solution was mixed and 90 μL was transferred to 6 time points plates (each in triplicate wells). For the time 0 plate, 225 μL of cold acetonitrile with internal standard ([…] warfarin) was added to each well, followed by addition of NADPH regenerating agent (22.5 μL) and no incubation. For other five time points' plate, NADPH regenerating agent (22.5 μL) was added to each well to initiate the reaction. The plates were incubated at 37° C. for the required time, followed by quenching of the reaction by adding 225 μL of cold acetonitrile with internal standard (4 μg/ml warfarin). All of the plates were sealed and mixed well at 600 rpm for 10 minutes followed by centrifugation at 4000 rpm for 20 minutes. The supernatants (120 μL) were transferred to analytical plates for analysis by LCMS. LCMS conditions were described in the materials and instrumentation section above. The metabolic stability is evaluated via the half-life from least-squares fit of the multiple time points based on first-order kinetics.

[2] = Plasma stability assay; assay type: in vitro ADME, human
Procedure: (§1) The plasma stability property of early drug discovery compounds can influence the in vivo efficacy of the test compounds/drugs. Human and/or mouse plasma degradation is determined using multiple time points to monitor the rate of disappearance of the parent compound during incubation.
(§2) Sample preparation for plasma stability was modified from Di et al. (2005) Int. J. Pharm. 297(1-2): 110-119. A set of incubation times of 0, 3, 24, and 48 hour were used. DMSO stock solutions of test compounds were prepared at 10 mM concentration. 1.8 μL of each test compound was each added directly to 1.8 mL of human/mouse plasma to get the final concentration of 10 μM. This compound/matrix was mixed and 70 μL was transferred to 8 time points plates (each in triplicate wells). For the Time 0 plate, 210 μL of cold acetonitrile with internal standard (4 μg/mL warfarin) was added to each well and no incubation needed. For other seven time points' plate, the plate was incubated at 37° C. for required time, followed by quenching of the reaction by adding 210 μL of cold acetonitrile with internal standard (4 μg/ml warfarin) to each well. All of the plates were sealed and mixed well at 600 rpm for 10 min and were centrifuged at 4000 rpm for 20 min. The supernatants (120 μL) were transferred to analytical plates for analysis by LCMS. Conditions for Waters ACQUITY-UPLC-MS-UV system was described separately. The plasma stability was evaluated via the half-life from least-squares fit of the multiple time points based on first-order kinetics.

[3] = Plasma stability assay; assay type: in vitro ADME, mouse
Procedure: as §1, §2

[4] = Solubility determination; assay type: physicochemical; settings: for solubility kinetic at 10 min: 22 °C, aqueous buffer, kinetic from dmso stock
Procedure: Test compounds were synthesized and supplied by the Department of Chemical Biology and Therapeutics at St. Jude Children's Research Hospital (Memphis, Tenn.). LC-MS chromasolv grade acetonitrile (ACN) was purchased from Fisher Scientific (Loughborough, UK). LC-MS chromasolv grade formic acid was obtained from Sigma-Aldrich (St. Louis, Mo.). Milli-Q water as an ultrapure laboratory grade water was used in aqueous mobile phase.
Chromatographic separation was performed on an Acquity UPLC BEH C18 1.7 μm, 2.1×50 mm column (Waters Corporation, Milford, Mass.) using an Acquity ultra performance liquid chromatography system. The total flow rate was 0.9 mL/min. The sample injection volume was 10 μL. The UPLC column was maintained at 60° C. and the gradient program started at 90% A (0.1% formic acid in MilliQ H2O), changed to 70% A over 0.2 min, to 95% B (0.1% formic acid in ACN) over 1.4 minutes, held for 0.35 minutes, then to 90% A over 0.05 minutes.
Mass data was acquired with an Acquity SQD Mass Spectrometer. The mass spectrometer was operated in positive-ion mode with electrospray ionization. The conditions were as follows: capillary voltage 3.5 kV, cone voltage 30 V, source temperature 150° C., desolvation temperature 350° C., desolvation gas 500 L/hr, cone gas 25 L/hr. Data were acquired using Masslynx v. 4.1 and analyzed using the Quanlynx software suite. A full scan range from m/z=100-1000 in 0.2 s was used to acquire MS data. Both UV and Single ion recording mass spectrometry were used to determine the quantification of the samples.
Stock solutions were prepared by dissolving compounds into DMSO to yield a concentration of 10 mM. Stock solutions were stored at room temperature.
Calibration standards were made by adding stock solutions to DMSO for final concentrations of compounds at concentration of 100, 25, 6.25, 1.563, 0.391 and 0.098 μM.
Solubility test samples were made by adding stock solutions to 200 μL, of DPBS for final concentrations of compounds at 100 μM in a 96-well analytical plate (300 μL, maximum volume in each well). Samples were tested in triplicates. The plate was sealed, shaken at 600 rpm for 10 minutes, and then was centrifuged at 4000 rpm for 20 min at 22° C. 100 μL, of the supernatant was transferred to a new analytical 96-well plate and 10 μL, was injected onto the LCMS system.
Two calibration curves for solubility test samples were analyzed during the quantitation process. The linear regression of test compound peak areas was weighted by 1/x^2. […] Coefficient of determination (R^2) was used to evaluate the linearity of each calibration curve.

[5] = microsomal metabolic stability half-life, mouse liver microsomes
[6] = plasma stability half-life, human plasma, 37° C.
[7] = plasma stability half-life, mouse plasma, 37° C.
[8] = solubility in DPBS, 100 μM test samples, LCMS, read-out: LCMS

Compound: Cc1ccc(NC(=O)N[C@@H](Cc2cccc(C)c2)C(=O)N[C@H]2COC(=O)[C@@H]3C[C@H](C)CN3C(=O)[C@H](C)NC(=O)[C@@H]3CCCCN3C(=O)[C@@H]3CCCN3C2=O)cc1 (stereo in doubt) [Compound 43, (S)—N-((2S,6S,8AS,14AS,20S,23AS)-2,6-DIMETHYL-5,8,14,19,23-PENTAOXOOCTADECAHYDRO-1H,5H,14H,19H-PYRIDO[2,1-I]DIPYRROLO[2,1-C:2′,1′-L][1]OXA[4,7,10,13]TETRAAZACYCLOHEXADECIN-20-YL)-3-(M-TOLYL)-2-(3-(P-TOLYL)UREIDO)PROPANAMIDE]
- Mouse [1, 5]: 3.57 ± 0.3 h
- Human [2, 6]: >50 h
- Mouse [3, 7]: 21.9 h
- solubility kinetic at 10 min [4, 8]: 42.2 ± 0.9 µM (≈ 32.6 µg/mL)
- μsol (μM) ([4]; solubility): 49.8 ± 2.5 µM

Compound: Cc1ccc(NC(=O)N[C@@H](Cc2cccc(C)c2)C(=O)N[C@@H]2C(=O)N3CCC[C@H]3C(=O)N3CCCC[C@H]3C(=O)N[C@@H](C)C(=O)N3C[C@H](C)C[C@H]3C(=O)O[C@H]2C)cc1 [Compound 1, (S)-3-(M-TOLYL)-2-(3-(P-TOLYL)UREIDO)-N-((2R,6S,8AS,14AS,20S,21S,23AS)-2,6,21-TRIMETHYL-5,8,14,19,23-PENTAOXOOCTADECAHYDRO-1H,5H,14H,19H-PYRIDO[2,1-I]DIPYRROLO[2,1-C:2′,1′-L][1]OXA[4,7,10,13]TETRAAZACYCLOHEXADECIN-20-YL)PROPANAMIDE] ({NH(4-Me-phenyl)-CO}-[Phe(3-Me)][aThr]P[Pip]A[Pro(4R-Me)]; ester 2-C)
- Mouse [1, 5]: 5.22 h
- Human (hr) [2, 6]: >>48 hr
- Mouse (hr) [3, 7]: >>48 hr
- solubility kinetic at 10 min [4, 8]: 22.9 µM (≈ 18 µg/mL)
- μsol (μM) ([4]; solubility): 40.7 µM
- μsol (μg/mL) ([4]; solubility): 32.0 µg/mL

Compound: Cc1ccc(NC(=O)N[C@@H](Cc2cc(C)cc(C)c2)C(=O)N[C@@H]2C(=O)N3CCC[C@H]3C(=O)N3CCCC[C@H]3C(=O)N[C@@H](C)C(=O)N3C[C@H](C)C[C@H]3C(=O)O[C@H]2C)cc1 [Compound 2, (S)-3-(3,5-DIMETHYLPHENYL)-2-(3-(P-TOLYL)UREIDO)-N-((2R,6S,8AS,14AS,20S,21S,23AS)-2,6,21-TRIMETHYL-5,8,14,19,23-PENTAOXOOCTADECAHYDRO-1H,5H,14H,19H-PYRIDO[2,1-I]DIPYRROLO[2,1-C:2′,1′-L][1]OXA[4,7,10,13]TETRAAZACYCLOHEXADECIN-20-YL)PROPANAMIDE] ({NH(4-Me-phenyl)-CO}-[Phe(3,5-Me2)][aThr]P[Pip]A[Pro(4R-Me)]; ester 2-C)
- Mouse [1, 5]: 2.85 h
- Human (hr) [2, 6]: >>48 hr
- Mouse (hr) [3, 7]: >>48 hr
- solubility kinetic at 10 min [4, 8]: 6.7 µM (≈ 5.36 µg/mL)
- μsol (μM) ([4]; solubility): 10.4 µM
- μsol (μg/mL) ([4]; solubility): 8.3 µg/mL

Compound: Cc1cccc(C[C@H](NC(=O)Nc2ccc(Cl)cc2F)C(=O)N[C@@H]2C(=O)N3CCC[C@H]3C(=O)N3CCCC[C@H]3C(=O)N[C@@H](C)C(=O)N3C[C@H](C)C[C@H]3C(=O)O[C@H]2C)c1 [Compound 3, (S)-2-(3-(4-CHLORO-2-FLUOROPHENYL)UREIDO)-3-(M-TOLYL)-N-((2R,6S,8AS,14AS,20S,21S,23AS)-2,6,21-TRIMETHYL-5,8,14,19,23-PENTAOXOOCTADECAHYDRO-1H,5H,14H,19H-PYRIDO[2,1-I]DIPYRROLO[2,1-C:2′,1′-L][1]OXA[4,7,10,13]TETRAAZACYCLOHEXADECIN-20-YL)PROPANAMIDE] ({NH(4-Cl-2-F-phenyl)-CO}-[Phe(3-Me)][aThr]P[Pip]A[Pro(4R-Me)]; ester 2-C)
- Mouse ([1]; CD-1, mouse, pH 7.4): 11.65 ± 2.2 h
- Human (hr) ([2]; human, 10 μM): >>48 hr
- Mouse (hr) ([3]; mouse, 10 μM): >>48 hr
- μsol (μM) [4]: 2.2 ± 0.1 µM
- μsol (μg/mL) [4]: 1.8 ± 0.1 µg/mL
- solubility kinetic at 10 min [4]: 0.5 µM (≈ 0.412 µg/mL)

Compound: Cc1cc(C)cc(C[C@H](NC(=O)Nc2ccc(Cl)cc2F)C(=O)N[C@@H]2C(=O)N3CCC[C@H]3C(=O)N3CCCC[C@H]3C(=O)N[C@@H](C)C(=O)N3C[C@H](C)C[C@H]3C(=O)O[C@H]2C)c1 [Compound 4, (S)-2-(3-(4-CHLORO-2-FLUOROPHENYL)UREIDO)-3-(3,5-DIMETHYLPHENYL)-N-((2R,6S,8AS,14AS,20S,21S,23AS)-2,6,21-TRIMETHYL-5,8,14,19,23-PENTAOXOOCTADECAHYDRO-1H,5H,14H,19H-PYRIDO[2,1-I]DIPYRROLO[2,1-C:2′,1′-L][1]OXA[4,7,10,13]TETRAAZACYCLOHEXADECIN-20-YL)PROPANAMIDE] ({NH(4-Cl-2-F-phenyl)-CO}-[Phe(3,5-Me2)][aThr]P[Pip]A[Pro(4R-Me)]; ester 2-C)
- Mouse ([1]; CD-1, mouse, pH 7.4): 6.99 ± 1.07 h
- Human (hr) ([2]; human, 10 μM): >>48 hr
- Mouse (hr) ([3]; mouse, 10 μM): >>48 hr
- μsol (μg/mL) [4]: <0.1 µg/mL

Compound: Cc1cccc(C[C@H](NC(=O)Nc2ccc(Cl)cc2F)C(=O)N[C@@H]2C(=O)N3CCC[C@H]3C(=O)N(C)C([C@@H](C)O)C(=O)N[C@@H](C)C(=O)N3C[C@H](C)C[C@H]3C(=O)O[C@H]2C)c1 (stereo partly drawn) [Compound 5] ({NH(4-Cl-2-F-phenyl)-CO}-[Phe(3-Me)][aThr]P[ξNMeThr]A[Pro(4R-Me)]; ester 2-C)
- Mouse ([1]; CD-1, mouse, pH 7.4): 1.02 ± 0.2 h
- Human ([2]; human, 10 μM): >50 h
- Mouse ([3]; mouse, 10 μM): >50 h
- μsol (μM) [4]: 22.5 ± 1.9 µM
- solubility kinetic at 10 min [4]: 17.4 ± 0.4 µM (≈ 14.4 µg/mL)
